The target in assay [1] is cloned human H3 receptor, stably expressed in SK-N-MC cells (Homo sapiens, UniProt Q9Y5N1). Put plainly: H3 receptor binding.
For another assay, the target named is rat brain SERT (Rattus norvegicus, UniProt P31652). Put plainly: biochemical.
For another assay, the target named is human H3 receptor (Homo sapiens, UniProt Q9Y5N1). The experiment in a line: Cyclic AMP accumulation (reporter gene assay, SK-N-MC cells).
Assay [2] deals with human SERT (HEK293 membranes) (Homo sapiens, UniProt P31645). The experiment in a line: biochemical.
Chain of human SERT (HEK293 membranes) (P31645 whole entry): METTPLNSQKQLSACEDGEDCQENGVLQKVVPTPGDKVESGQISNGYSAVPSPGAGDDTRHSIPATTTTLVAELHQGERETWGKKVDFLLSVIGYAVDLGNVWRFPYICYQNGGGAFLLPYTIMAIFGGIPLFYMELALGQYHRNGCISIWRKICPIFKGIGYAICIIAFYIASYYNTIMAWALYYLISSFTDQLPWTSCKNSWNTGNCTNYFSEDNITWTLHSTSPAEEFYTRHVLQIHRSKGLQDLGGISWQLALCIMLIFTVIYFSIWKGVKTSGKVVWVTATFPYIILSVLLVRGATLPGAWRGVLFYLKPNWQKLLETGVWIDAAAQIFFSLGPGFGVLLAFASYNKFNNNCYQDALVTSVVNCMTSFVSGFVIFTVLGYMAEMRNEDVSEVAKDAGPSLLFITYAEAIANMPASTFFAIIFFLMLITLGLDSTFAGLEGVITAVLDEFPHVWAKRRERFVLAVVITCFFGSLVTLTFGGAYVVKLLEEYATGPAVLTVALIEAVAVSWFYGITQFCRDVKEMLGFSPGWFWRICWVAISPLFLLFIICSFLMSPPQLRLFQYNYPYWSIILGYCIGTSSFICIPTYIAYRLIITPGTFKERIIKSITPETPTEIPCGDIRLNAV
Protocol: Homogenized HEK293 (Human Embryonic Kidney) membranes expressing the human SERT were incubated with ^3H-citalopram (SERT) at rt for 1 h in 50 mM Tris, 120 mM NaCl, 5 mM KCl (pH 7.4). Nonspecific binding was determined in the presence of 10 μM fluoxetine for the SERT. The membranes were washed and the radioactivity was counted as above.

pKi: −log10 of the molar value.

Chain of cloned human H3 receptor, stably expressed in SK-N-MC cells (Q9Y5N1 whole entry): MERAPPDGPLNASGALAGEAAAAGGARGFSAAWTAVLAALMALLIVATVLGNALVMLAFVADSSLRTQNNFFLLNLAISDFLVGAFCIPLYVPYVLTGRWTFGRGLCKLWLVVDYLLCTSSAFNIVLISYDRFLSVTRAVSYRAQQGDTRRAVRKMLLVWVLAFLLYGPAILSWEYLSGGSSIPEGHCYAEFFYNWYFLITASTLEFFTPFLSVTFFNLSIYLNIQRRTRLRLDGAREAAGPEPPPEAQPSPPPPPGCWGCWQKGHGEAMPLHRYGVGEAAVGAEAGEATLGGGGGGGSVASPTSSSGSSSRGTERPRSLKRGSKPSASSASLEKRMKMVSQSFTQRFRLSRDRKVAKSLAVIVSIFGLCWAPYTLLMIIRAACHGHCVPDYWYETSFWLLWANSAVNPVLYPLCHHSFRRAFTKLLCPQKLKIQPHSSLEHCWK
Chain of rat brain SERT (P31652 whole entry): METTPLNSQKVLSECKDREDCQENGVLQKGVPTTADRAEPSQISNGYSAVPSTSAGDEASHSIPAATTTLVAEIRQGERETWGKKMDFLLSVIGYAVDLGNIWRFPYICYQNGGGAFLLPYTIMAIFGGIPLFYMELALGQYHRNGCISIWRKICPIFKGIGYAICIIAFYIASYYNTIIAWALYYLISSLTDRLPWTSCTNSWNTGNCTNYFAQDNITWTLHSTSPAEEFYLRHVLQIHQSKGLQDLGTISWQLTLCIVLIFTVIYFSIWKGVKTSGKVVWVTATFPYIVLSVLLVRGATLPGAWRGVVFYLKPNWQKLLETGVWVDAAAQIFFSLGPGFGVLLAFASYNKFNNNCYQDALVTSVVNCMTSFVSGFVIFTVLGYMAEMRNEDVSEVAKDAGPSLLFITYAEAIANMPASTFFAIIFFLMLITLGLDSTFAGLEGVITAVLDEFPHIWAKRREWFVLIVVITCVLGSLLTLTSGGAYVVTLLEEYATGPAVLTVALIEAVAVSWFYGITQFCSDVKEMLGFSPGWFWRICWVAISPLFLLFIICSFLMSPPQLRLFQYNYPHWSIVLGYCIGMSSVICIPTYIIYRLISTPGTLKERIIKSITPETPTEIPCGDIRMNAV
Chain of human H3 receptor (Q9Y5N1 whole entry): as the sequence (Q9Y5N1 whole entry) above
Protocol for rat brain SERT: The supernatant was removed and re-centrifuged at 15,000 rpm for 30 min. […] Membranes were incubated with 0.6 nM [^3H]-Citalopram plus/minus test compounds for 60 min at 25° C. and harvested by rapid filtration over GF/C glass fiber filters (pretreated with 0.3% polyethylenimine) followed by four washes with ice-cold buffer. Nonspecific binding was defined in the presence of 100 μM fluoxetine.

Regarding `CNCc1cc(C(=O)N2CCCN(C3CC3)CC2)ccc1Oc1cccc(F)c1F` [Example 32, (4-Cyclopropyl-[1,4]diazepan-1-yl)-[4-(2,3-difluoro-phenoxy)-3-methylaminomethyl-phenyl]-methanone], the results for the pKi (in assay [1]; at rat brain SERT) were 9.22 and 7.51, respectively.
As to `CNCc1cc(C(=O)N2CCCN(C3CC3)CC2)ccc1Oc1ccc(F)cc1Cl` [Example 33, [4-(2-Chloro-4-fluoro-phenoxy)-3-methylaminomethyl-phenyl]-(4-cyclopropyl-[1,4]diazepan-1-yl)-methanone], the negative-log Ki (pKi) in assay [1] was 9.05; on rat brain SERT, 7.55.
Regarding `CN(Cc1cc(C(=O)N2CCCN(C3CC3)CC2)ccc1Oc1ccc(Cl)cc1)C1CC1` [Example 34, {4-(4-Chloro-phenoxy)-3-[(cyclopropyl-methyl-amino)-methyl]-phenyl}-(4-cyclopropyl-[1,4]diazepan-1-yl)-methanone], the pKi in assay [1] is 8.70; on rat brain SERT, 7.21.
`CNCc1cc(C(=O)N2CCCN(C3CC3)CC2)ccc1Oc1cccc(Cl)c1Cl` [Example 35, (4-Cyclopropyl-[1,4]diazepan-1-yl)-[4-(2,3-dichloro-phenoxy)-3-methylaminomethyl-phenyl]-methanone]: the pKi was 8.70 in assay [1] and 7.82 at rat brain SERT.
Taken in the same sequence, the figures for `Cc1ccc(Oc2ccc(C(=O)N3CCCN(C4CC4)CC3)cc2CN(C)C)cn1` [Example 36, (4-Cyclopropyl-[1,4]diazepan-1-yl)-[3-dimethylaminomethyl-4-(6-methyl-pyridin-3-yloxy)-phenyl]-methanone] were 8.70 and 7.23.
In the case of `CNCc1cc(C(=O)N2CCCN(C3CC3)CC2)ccc1Sc1ccc(Cl)cc1` [Example 37, [4-(4-Chloro-phenylsulfanyl)-3-methylaminomethyl-phenyl]-(4-cyclopropyl-[1,4]diazepan-1-yl)-methanone], the pKi in assay [1] is 8.70; on rat brain SERT it was 8.30.
For the molecule `CNCc1cc(C(=O)N2CCCN(C3CC3)CC2)ccc1Sc1ccccn1` [Example 38, (4-Cyclopropyl-[1,4]diazepan-1-yl)-[3-methylaminomethyl-4-(pyridin-2-ylsulfanyl)-phenyl]-methanone], the pKi was 8.70 in assay [1] and 5.30 at rat brain SERT.
For the molecule `CNCc1cc(C(=O)N2CCCN(C3CC3)CC2)ccc1Oc1ccccn1` [Example 39, (4-Cyclopropyl-[1,4]diazepan-1-yl)-[3-methylaminomethyl-4-(pyridin-2-yloxy)-phenyl]-methanone], the pKi is 9.05 in assay [1] and 7.82 on rat brain SERT.
Molecule `O=C(c1ccc(CNC2CC2)c(Oc2cccnc2)c1)N1CCCN(C2CC2)CC1` [Example 40, [4-Cyclopropylaminomethyl-3-(pyridin-3-yloxy)-phenyl]-(4-cyclopropyl-[1,4]diazepan-1-yl)-methanone] had a Kb at human H3 receptor of 0.501 nM. Moreover, the pKi in assay [1] was 8.70; on rat brain SERT, 5.30.
Taken in the same sequence, the figures for `O=C(c1ccc(CN2CCCCC2)c(Oc2cccnc2)c1)N1CCCN(C2CC2)CC1` [Example 41, (4-Cyclopropyl-[1,4]diazepan-1-yl)-[4-piperidin-1-ylmethyl-3-(pyridin-3-yloxy)-phenyl]-methanone] were 0.0631 nM, 9.00 and 5.00.
In the case of `CNCc1cc(C(=O)N2CCCN(C3CC3)CC2)ccc1OCc1ccc(Cl)c(Cl)c1` [Example 42, (4-Cyclopropyl-[1,4]diazepan-1-yl)-[4-(3,4-dichloro-benzyloxy)-3-methylaminomethyl-phenyl]-methanone], the negative-log Ki (pKi) in assay [1] is 8.40; on rat brain SERT, 8.70.
`CNCc1cc(C(=O)N2CCCN(C3CC3)CC2)ccc1Sc1cc(C(F)(F)F)ccn1` [Example 47, (4-Cyclopropyl-[1,4]diazepan-1-yl)-[3-methylaminomethyl-4-(4-trifluoromethyl-pyridin-2-ylsulfanyl)-phenyl]-methanone]: the pKi in assay [1] is 8.40; on rat brain SERT it was 6.39.
Consider `CNCc1cc(C(=O)N2CCCN(C3CCC3)CC2)ccc1Oc1ccc(Cl)c(Cl)c1` [Example 48, (4-Cyclobutyl-[1,4]diazepan-1-yl)-[4-(3,4-dichloro-phenoxy)-3-methylaminomethyl-phenyl]-methanone], for which the negative-log Ki (pKi) was 8.01 in assay [2], 8.28 in assay [1] and 8.10 at rat brain SERT.
For the molecule `Cc1ccc(Oc2cc(C(=O)N3CCCN(C(C)C)CC3)ccc2CN(C)C)c(C)n1` [Example 49, [4-Dimethylaminomethyl-3-(2,6-dimethyl-pyridin-3-yloxy)-phenyl]-(4-isopropyl-[1,4]diazepan-1-yl)-methanone], the values for the negative-log Ki (pKi) (in assay [1]; at rat brain SERT) were 7.96 and 5.70, respectively.
Consider `CC(C)N1CCCN(C(=O)c2ccc(CN3CCCCC3)c(OCc3ccccc3)c2)CC1` [Example 50, (3-Benzyloxy-4-piperidin-1-ylmethyl-phenyl)-(4-isopropyl-[1,4]diazepan-1-yl)-methanone], for which, in assay [1], the negative logarithm of the Ki (pKi) is 8.05.
Consider `O=C(c1ccc(CN2CCOCC2)c(Oc2cccnc2)c1)N1CCCN(C2CC2)CC1` [Example 51, (4-Cyclopropyl-[1,4]diazepan-1-yl)-[4-morpholin-4-ylmethyl-3-(pyridin-3-yloxy)-phenyl]-methanone], for which the negative logarithm of the Ki (pKi) in assay [1] is 8.52. Compared with the last molecule, the pKi is 0.47 log units higher.
Take `CNCc1ccc(C(=O)N2CCCN(C3CC3)CC2)cc1Oc1ccc(Cl)c(Cl)c1` [Example 52, (4-Cyclopropyl-[1,4]diazepan-1-yl)-[3-(3,4-dichloro-phenoxy)-4-methylaminomethyl-phenyl]-methanone]: the negative-log Ki (pKi) in assay [1] was 8.22; on rat brain SERT it was 7.77.
`CC(C)N1CCCN(C(=O)c2ccc(CN3CCOC(CO)C3)c(Oc3ccccc3)c2)CC1` (stereo not shown) [Example 53, [4-(2-Hydroxymethyl-morpholin-4-ylmethyl)-3-phenoxy-phenyl]-(4-isopropyl-[1,4]diazepan-1-yl)-methanone] gave a negative-log Ki (pKi) in assay [1] of 8.52.
As to `COCCN(CCOC)Cc1ccc(C(=O)N2CCCN(C3CC3)CC2)cc1OCc1ccccc1` [Example 54, (3-Benzyloxy-4-{[bis-(2-methoxy-ethyl)-amino]-methyl}-phenyl)-(4-cyclopropyl-[1,4]diazepan-1-yl)-methanone], in assay [1], the negative logarithm of the Ki (pKi) is 8.70.

Broadly, the pKi is the negative decadic logarithm of the Ki, by convention in mol/L. Low values mean a large Ki, high ones a small Ki.

The values are drawn from patent publication US20080045508A1, “SUBSTITUTED AMINOMETHYL BENZAMIDE COMPOUNDS” (priority 2006, published 2008).
